In patent US20240327380A1, “BTK INHIBITORS” (BIOGEN MA INC., priority 2020, published 2024):

Experiments:
[1] = tested on: CD69 expression on CD19+ B cells in human whole blood; assay: In Vitro whole blood CD69 Assay; assay type: cell-based; settings: B-cell; human heparinized whole blood, anti-human IgD stimulation overnight, percentage of CD19+ B cells expressing CD69, flow cytometry; read-out: IC50
Method: In Vitro whole blood CD69 Assay
Human heparinized venous blood from health donors was aliquoted into 96-well plate and “spiked” with serial dilutions of formula I compounds in DMSO or with DMSO without drug. The final concentration of DMSO in all wells was 0.1%. The plate was incubated at 37° C. for 30 min. Drug-containing samples were stimulated with […] mouse anti-human IgD-dextran (1A62) or […] polyclonal rabbit F(ab′)2 anti-human IgD. Phosphate-buffered saline (PBS) was added to the negative control unstimulated sample and the plates were incubated overnight (18 to 22 hours) at 37° C. Cells were stained with fluorochrome-conjugated anti-CD19 and anti-CD69 antibodies. Lyse/fix solution was used to remove red blood cells by hypotonic lysis and to fix the remaining cells, which were then analyzed by flow cytometry. CD19+ B cells were gated and analyzed for CD69 expression. The percentage of B cells expressing CD69 was plotted versus the log 10 of the concentration of the drug and the best-fit curves (variable Hill slope) were generated to obtain the IC50 value.

[2] = target: T1, active BTK enzyme (Upstate 14-552) (Homo sapiens, UniProt Q06187); assay: In Vitro BTK Kinase Assay: Btk-PolyGAT-LS Assay; assay type: biochemical; settings: ATP 10 μM, polyGAT 100 nM, BTK 0.25 nM, 30 minutes, TRF readout
T1 construct: purchased Upstate 14-552
T1 sequence (Q06187 whole entry): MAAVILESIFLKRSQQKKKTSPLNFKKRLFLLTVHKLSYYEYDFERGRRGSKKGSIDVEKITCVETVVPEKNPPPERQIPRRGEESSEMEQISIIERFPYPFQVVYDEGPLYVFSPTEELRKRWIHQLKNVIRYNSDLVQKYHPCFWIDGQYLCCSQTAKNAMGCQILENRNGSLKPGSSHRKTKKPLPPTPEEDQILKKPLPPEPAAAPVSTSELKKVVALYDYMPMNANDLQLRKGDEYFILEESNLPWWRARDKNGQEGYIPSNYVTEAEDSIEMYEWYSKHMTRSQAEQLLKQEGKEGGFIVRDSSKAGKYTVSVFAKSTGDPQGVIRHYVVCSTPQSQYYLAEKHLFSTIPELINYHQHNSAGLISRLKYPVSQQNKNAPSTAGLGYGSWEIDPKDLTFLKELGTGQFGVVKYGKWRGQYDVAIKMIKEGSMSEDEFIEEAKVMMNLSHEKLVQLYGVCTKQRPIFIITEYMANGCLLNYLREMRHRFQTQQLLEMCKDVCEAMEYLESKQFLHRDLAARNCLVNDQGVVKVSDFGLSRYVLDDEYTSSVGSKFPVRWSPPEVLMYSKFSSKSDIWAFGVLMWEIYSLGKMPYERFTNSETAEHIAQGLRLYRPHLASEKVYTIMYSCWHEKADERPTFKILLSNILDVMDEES
In short: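 Active BTK (0.25 nM) phosphorylates fluorescein-polyGAT peptide (100 nM) with 10 µM ATP in Tris-HCl pH 7.5/MgCl2/DTT buffer, 30 min, EDTA stop. Phosphopeptide detected by TR-FRET with Tb-PY20 antibody after 45 min at room temperature; IC50 from four-parameter fit against DMSO and EDTA controls.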

| Compound | IC50 [1] | IC50 [2] |
| --- | --- | --- |
| Cc1cc(-c2ncncc2N2CCN(C(=O)/C=C/CN(C)C)CC2)ccc1CNC(=O)c1noc(C(C)(C)C)n1 [Example 82, (E)-5-(tert-butyl)-N-(4-(5-(4-(4-(dimethylamino)but-2-enoyl)piperazin-1-yl)pyrimidin-4-yl)-2-methylbenzyl)-1,2,4-oxadiazole-3-carboxamide] | < 0.1 µM | ≤ 0.001 µM |
| Cc1cc(-c2ccncc2N2CCN(C(=O)/C=C/CN(C)C)CC2)ccc1[C@@H](C)NC(=O)c1noc(C(C)(C)C)n1 [Example 86, (R,E)-5-(tert-butyl)-N-(1-(4-(3-(4-(4-(dimethylamino)but-2-enoyl)piperazin-1-yl)pyridin-4-yl)-2-methylphenyl)ethyl)-1,2,4-oxadiazole-3-carboxamide] | 0.1 to 1 µM | 0.001 to 0.01 µM |
| C=CC(=O)N1CCC[C@H](c2cnccc2-c2ccc(CNC(=O)c3cc(C(C)(C)C)on3)c(C)c2)C1 (single isomer, unassigned) [Example 33] | > 1 µM | 0.001 to 0.01 µM |
| C=CC(=O)N(C)C1CCCN(c2cnccc2-c2ccc(CNC(=O)c3cn(C(C)(C)C)cn3)c(C)c2)C1 (centres unmarked) [Example 43, 1-(tert-butyl)-N-(2-methyl-4-(3-(3-(N-methylacrylamido)piperidin-1-yl)pyridin-4-yl)benzyl)-1H-imidazole-4-carboxamide] | > 1 µM | 0.001 to 0.01 µM |
| C=CC(=O)N(C)C1CCCN(c2cnccc2-c2ccc(CNC(=O)c3cc(C(C)(C)C)no3)c(C)c2)C1 (centres unmarked) [Example 46, 3-(tert-butyl)-N-(2-methyl-4-(3-(3-(N-methylacrylamido)piperidin-1-yl)pyridin-4-yl)benzyl)isoxazole-5-carboxamide] | 0.1 to 1 µM | ≤ 0.001 µM |
| C=CC(=O)N(C)C1CCCN(c2cnccc2-c2ccc(CNC(=O)c3ncn(C(C)(C)C)n3)c(C)c2)C1 (centres unmarked) [Example 40, 1-(tert-butyl)-N-(2-methyl-4-(3-(3-(N-methylacrylamido)piperidin-1-yl)pyridin-4-yl)benzyl)-1H-1,2,4-triazole-3-carboxamide] | > 1 µM | 0.001 to 0.01 µM |
| C=CC(=O)N(C)C1CCCN(c2cncnc2-c2ccc(CNC(=O)c3cn(C(C)(C)C)nn3)c(C)c2)C1 (centres unmarked) [Example 8, 1-(tert-butyl)-N-(2-methyl-4-(5-(3-(N-methylacrylamido)piperidin-1-yl)pyrimidin-4-yl)benzyl)-1H-1,2,3-triazole-4-carboxamide] | < 0.1 µM | ≤ 0.001 µM |
| C=CC(=O)N1CCN(c2cnccc2-c2ccc(CNC(=O)c3noc(C(C)(C)C)n3)c(C)c2)CC1 [Example 63, N-(4-(3-(4-acryloylpiperazin-1-yl)pyridin-4-yl)-2-methylbenzyl)-5-(tert-butyl)-1,2,4-oxadiazole-3-carboxamide] | 0.1 to 1 µM | ≤ 0.001 µM |
| C=CC(=O)N(C)C1CCCN(c2cnccc2-c2ccc(CNC(=O)c3ccn(C(C)(C)C)n3)c(C)c2)C1 (centres unmarked) [Example 44, 1-(tert-butyl)-N-(2-methyl-4-(3-(3-(N-methylacrylamido)piperidin-1-yl)pyridin-4-yl)benzyl)-1H-pyrazole-3-carboxamide] | > 1 µM | 0.001 to 0.01 µM |
| C=CC(=O)N(C)C1CCCN(c2cnccc2-c2ccc(CNC(=O)c3cn(C(C)(C)C)nn3)c(C)c2)C1 (centres unmarked) [Example 1, 1-(tert-butyl)-N-(2-methyl-4-(3-(3-(N-methylacrylamido)piperidin-1-yl)pyridin-4-yl)benzyl)-1H-1,2,3-triazole-4-carboxamide] | 0.1 to 1 µM | ≤ 0.001 µM |
| Cc1cc(-c2ccncc2N2CCN(C(=O)/C=C/CN(C)C)CC2)ccc1CNC(=O)c1nc(C2(CF)CC2)no1 [Example 94, (E)-N-(4-(3-(4-(4-(dimethylamino)but-2-enoyl)piperazin-1-yl)pyridin-4-yl)-2-methylbenzyl)-3-(1-(fluoromethyl)cyclopropyl)-1,2,4-oxadiazole-5-carboxamide] | 0.1 to 1 µM | ≤ 0.001 µM |
| C=CC(=O)N(C)[C@@H]1CCCN(c2cncc(F)c2-c2ccc(CNC(=O)c3cn(C(C)(C)C)nn3)c(C)c2)C1 [Example 56, 1-tert-butyl-N-[[4-[3-fluoro-5-[(3R)-3-[methyl(prop-2-enoyl)amino]-1-piperidyl]-4-pyridyl]-2-methyl-phenyl]methyl]triazole-4-carboxamide] | 0.1 to 1 µM | ≤ 0.001 µM |
| C=CC(=O)N(C)C1CCCN(c2cnccc2-c2ccc(CNC(=O)c3cc(C(C)(C)C)on3)c(C)c2)C1 (centres unmarked) [Example 14, 5-(tert-butyl)-N-(2-methyl-4-(3-(3-(N-methylacrylamido)piperidin-1-yl)pyridin-4-yl)benzyl)isoxazole-3-carboxamide] | 0.1 to 1 µM | ≤ 0.001 µM |
| C=CC(=O)N1CCCC(c2cnccc2-c2ccc(CNC(=O)c3nc(C4(C)CC4)no3)c(C)c2)C1 (centres unmarked) [Example 29, N-(4-(3-(1-acryloylpiperidin-3-yl)pyridin-4-yl)-2-methylbenzyl)-3-(1-methylcyclopropyl)-1,2,4-oxadiazole-5-carboxamide] | > 1 µM | 0.001 to 0.01 µM |
| C=CC(=O)N1CCC[C@@H](c2cnccc2-c2ccc(CNC(=O)c3noc(C4(C)CC4)n3)c(C)c2)C1 (single isomer, unassigned) [Example 28] | > 1 µM | > 0.01 µM |
| C=CC(=O)N(CC)[C@@H]1CCCN(c2cnccc2-c2ccc(CNC(=O)c3cn(C(C)(C)C)nn3)c(C)c2)C1 (stereo in doubt) [Example 16, 1-(tert-butyl)-N-(4-(3-(3-(N-ethylacrylamido)piperidin-1-yl)pyridin-4-yl)-2-methylbenzyl)-1H-1,2,3-triazole-4-carboxamide] | 0.1 to 1 µM | ≤ 0.001 µM |
| C=CC(=O)N(C)C1CCCN(c2cnccc2-c2ccc(CNC(=O)c3cnn(C(C)(C)C)c3)c(C)c2)C1 (centres unmarked) [Example 42, 1-(tert-butyl)-N-(2-methyl-4-(3-(3-(N-methylacrylamido)piperidin-1-yl)pyridin-4-yl)benzyl)-1H-pyrazole-4-carboxamide] | 0.1 to 1 µM | ≤ 0.001 µM |
| C=CC(=O)N(C)C1CCCN(c2cnccc2-c2ccc(CNC(=O)c3ccc(C(F)(F)F)nc3)c(C)c2)C1 (centres unmarked) [Example 41, N-(2-methyl-4-(3-(3-(N-methylacrylamido)piperidin-1-yl)pyridin-4-yl)benzyl)-6-(trifluoromethyl)nicotinamide] | > 1 µM | 0.001 to 0.01 µM |
| C=CC(=O)N(C)C1CCN(c2cnccc2-c2ccc(CNC(=O)c3cn(C(C)(C)C)nn3)c(C)c2)C1 (centres unmarked) [Example 2, 1-(tert-butyl)-N-(2-methyl-4-(3-(3-(N-methylacrylamido)pyrrolidin-1-yl)pyridin-4-yl)benzyl)-1H-1,2,3-triazole-4-carboxamide] | 0.1 to 1 µM | 0.001 to 0.01 µM |
| Cc1cc(-c2c(C#N)cncc2N2CCN(C(=O)/C=C/CN(C)C)CC2)ccc1CNC(=O)c1noc(C(C)(C)C)n1 [Example 69, (E)-5-(tert-butyl)-N-(4-(3-cyano-5-(4-(4-(dimethylamino)but-2-enoyl)piperazin-1-yl)pyridin-4-yl)-2-methylbenzyl)-1,2,4-oxadiazole-3-carboxamide] | 0.1 to 1 µM | 0.001 to 0.01 µM |
| C=CC(=O)N(C)[C@@H]1CCCN(c2cnccc2-c2ccc(CNC(=O)c3noc(C(C)(C)C)n3)c(C)c2F)C1 (stereo in doubt) [Example 19, 5-(tert-butyl)-N-(3-fluoro-2-methyl-4-(3-(3-(N-methylacrylamido)piperidin-1-yl)pyridin-4-yl)benzyl)-1,2,4-oxadiazole-3-carboxamide] | 0.1 to 1 µM | ≤ 0.001 µM |
| C=CC(=O)N(C1CC1)[C@@H]1CCCN(c2cnccc2-c2ccc(CNC(=O)c3cn(C(C)(C)C)nn3)c(C)c2)C1 (stereo in doubt) [Example 17, 1-(tert-butyl)-N-(4-(3-(3-(N-cyclopropylacrylamido)piperidin-1-yl)pyridin-4-yl)-2-methylbenzyl)-1H-1,2,3-triazole-4-carboxamide] | > 1 µM | ≤ 0.001 µM |
| C=CC(=O)N1CCCC(c2cnccc2-c2ccc(CNC(=O)c3cc(C(C)(C)C)on3)c(C)c2)C1 (centres unmarked) [Example 32, N-(4-(3-(1-acryloylpiperidin-3-yl)pyridin-4-yl)-2-methylbenzyl)-5-(tert-butyl)isoxazole-3-carboxamide] | 0.1 to 1 µM | 0.001 to 0.01 µM |
| C=CC(=O)N(C)C1COCCN(c2cnccc2-c2ccc(CNC(=O)c3cn(C(C)(C)C)nn3)c(C)c2)C1 (centres unmarked) [Example 52, 1-(tert-butyl)-N-(2-methyl-4-(3-(6-(N-methylacrylamido)-1,4-oxazepan-4-yl)pyridin-4-yl)benzyl)-1H-1,2,3-triazole-4-carboxamide] | 0.1 to 1 µM | 0.001 to 0.01 µM |
| C=CC(=O)N1CCCC12CCN(c1cnccc1-c1ccc(CNC(=O)c3cn(C(C)(C)C)nn3)c(C)c1)C2 (centres unmarked) [Example 3, N-(4-(3-(1-acryloyl-1,7-diazaspiro[4.4]nonan-7-yl)pyridin-4-yl)-2-methylbenzyl)-1-(tert-butyl)-1H-1,2,3-triazole-4-carboxamide] | > 1 µM | 0.001 to 0.01 µM |
